Measured values reported in patent US4820873A, “Pyrene derivatives” (priority 1984, dated 1989).
Structures can show the parent of a compound that is named as a salt.

Tests used:
LD20 in the P388/0 test = type: in vivo, CD2-F1 mice; set-up: LD20: dose in mg/kg body weight; conditions: intraperitoneal, days 1, 5, 9, doses are on a mg/kg basis; for MTD: mouse, in vivo, ip, read-out: highest nontoxic dose (LD20 column, values in parentheses; LD20 was not determined)
Method: CD2-F1 mice, of the same sex, weighing 20±3 g, are used for this test. Control and test animals are injected intraperitoneally with a suspension of ~10^6 viable P388/0 tumor cells on day 0. In each test, several dose levels which bracket the LD20 of the compound are evaluated; each dose level group contains 6 animals. The test compounds are prepared either in physiologic saline containing 0.05% Tween 80 or distilled water containing 5% dextrose and are administered intraperitoneally on days 1, 5, and 9 relative to tumor implant. Doses are on a mg/kg basis according to individual animals' body weights. The day of death for each animal is recorded, the median identified for each group and the ratios of median survival time for treated (T)/control (C) groups are calculated. The criterion for activity is T/C×100≥120%.

Trichomonas vaginalis = assay: Antiprotozoal testing, Trichomonas vaginalis (in vitro); type: cell-based; conditions: Stenton or Modified Diamond's medium, read-out: Result (screen code, inhibition); for inhibition at 40 µg/mL: 40 mg/L
Excerpt: Antiprotozoal testing against Trichomonas vaginalis was done using methods outlined by R. M. Michaels in Advances in Chemotherapy, 3, 39-108 (1968).
(Stenton or Modified Diamond's medium)

Herpes simplex 1/vero = Herpes simplex 1/vero plaque inhibition screen; type: cell-based
Excerpt: Antiviral testing against Herpes simplex 1/vero was done using plaque inhibition methods as outlined in P. Collins and D. J. Bauer, Proc. N.Y. Acad. Sci. 284, 49 (1977) and by plaque reduction methods as outlined in P. Collins and D. J. Bauer, J. Antimicrobiol Chemotherapy 3, Supplement A, 73, (1977). The column headings labeled Score, Toxicity, and Zone of Inhibition refer to the plaque inhibition screen while the IC50 heading to the plaque reduction screen.

LD50 Tests = conditions: in vivo; IP single dose - CD1 Male Mouse
Excerpt: |(IP single dose - CD1 Male Mouse)

[1] = test system: Mycoplasma smegmatis (S3264); assay: Antibacterial screening, Mycoplasma smegmatis, agar dilution assay; type: cell-based
Excerpt: (§1) Antibacterial testing against Mycoplasma smegmatis (S3264) and Streptococcus pyogens (CN10) was done with slight modifications using standard agar dilution assays as outlined in Manual of Clinical Microbiology, Second Ed., E. H. Lennette, E. H. Spaulding and J. P. Truant Eds., American Society for Microbiology, Washington, DC, 1974.

[2] = test system: Candida albicans (CN1863); assay: Antifungal screening, Candida albicans, broth and agar dilution assays; type: cell-based; conditions: Medium: Wellcotest sensitivity test agar plus 7% lysed horse blood
Excerpt: Antifungal testing against Candida albicans (CN1863) was done with slight modifications using a combination of broth and agar dilution assays as outlined in Laboratory Handbook of Medical Mycology, Chapter 6, pages 441-446, M. R. McGinnis, Academic Press, New York, NY, 1980.
Medium: Wellcotest* sensitivity test agar plus 7% lysed horse blood.

[3] = test system: Nippostrongylus brasiliensis (Immature - free living stages); assay: Anthelmintic screening, Nippostrongylus brasiliensis; type: cell-based
Excerpt: Anthelmintic testing against Nippostrongylus brasiliensis was done using methods as outlined in D. C. Jenkins, R. Armitage, and T. S. Carrington, Zetschrift fur Parasitenkunde 63, 261-269 (1980).

Eimeria tenella = assay: Antiprotozoal screening, Eimeria tenella (in vitro); type: cell-based; conditions: read-out: Result (screen code, inhibition); for inhibition at 5 µg/mL: 5 mg/L
Excerpt: Antiprotozoal testing against Eimeria tenella was done using methods outlined in V. S. Latter and D. Wilson, Parasitology 79, 169 (1979).

[4] = test system: Streptococcus pyogenes (CN10); assay: Antibacterial testing, Streptococcus pyogenes, agar dilution assay; type: cell-based
Excerpt: as §1

[5] = test system: Brugia pahangi microfilaria; assay: Screening against Brugia pahangi microfilaria (in vitro); type: cell-based; conditions: for inhibition at 12.5 µg/mL: 12.5 mg/L
Excerpt: Anthelmintic testing against Brugia pahangi was done using methods outlined in D. A. Denham et al., Transactions of the Royal Society of Tropical Medicine and Hygiene 73, 673-676 (1979).

B16 cells = assay: Melanotic Melanoma B16 test; type: in vivo, B6C3-F1 mice; conditions: dosing as in P388/0 test, active if ≥125%
Excerpt: Methods for evaluating the antitumor activity of these compounds are essentially those used in the Tumor Panel by the Development Therapeutics Program, Division of Cancer Treatment, National Cancer Institute, A. Goldin, et al., Methods in Cancer Research, Vol. XVI, p. 165, Academic Press (1979). Some modifications in dose level and schedule have been made to increase the testing efficiency.
B6C3-F1 mice of the same sex, weighing 20+3 g, are used for this test. A suspension of B16 cells is prepared from a non-necrotic portion of solid tumor tissue obtained from a passage mouse. One gram of tumour is homogenized in 9 mL ice-cold Earle's salts solution and filtered through 1000 mesh screen to remove debris. 0.5 mL of the resulting brei is injected intraperitoneally into each animal. Dosing is carried out as in the P388/0 and L1210 tests. Days of death are recorded for a 60 day period, and T/C ratio calculated as in the P388/0 and L1210 tests. The criterion for activity is T/C×100≥125%.

[6] = read-out: Result (screen code, inhibition)

Structure (SMILES) | LD20 (LD20 in the P388/0 test) | LD50 (LD50 Tests) [mg/kg] | MIC [1] [µg/mL] | MIC [2] [µg/mL] | MIC [3] [µg/mL] | MIC [4] [µg/mL] | further results
CCC(CO)NCc1ccc2ccc3cccc4ccc1c2c34 (stereo not shown) [Example 6, 2-((1-Pyrenylmethyl)amino)butanol hydrochloride] | 450 | 350 | 10 | 50 | – | – | inhibition at 40 µg/mL (Trichomonas vaginalis): 76 to 100%; Score (Herpes simplex 1/vero): -2 (26-50% inhibition)
CC(=O)OCC(COC(C)=O)(COC(C)=O)NCc1ccc2ccc3cccc4ccc1c2c34 [Example 15, 2-Acetoxymethyl-1,3,-O-diacetyl-2-((1-pyrenylmethyl)amino)-1,3-propanediol] | – | – | ≤ 10 | > 50 | – | – | MTD (LD20 in the P388/0 test): 500 mg/kg
OCC(CO)NCc1ccc2ccc3cccc4ccc1c2c34 [Example 11, 2-((1-Pyrenylmethyl)amino)-1,3-propanediol hydrochloride] | 450 | 250 | 10 | 50 | ≥ 50 | 5 | inhibition at 40 µg/mL (Trichomonas vaginalis): 76 to 100%; inhibition at 5 µg/mL (Eimeria tenella; in vitro): 76 to 100%
CC(C)(CO)NCc1ccc2ccc3cccc4ccc1c2c34 [Example 2B, 2-Methyl-2-((1-pyrenylmethyl)amino)propanol] | 450 | – | – | – | – | – | –
CC(C)(O)CNCc1ccc2ccc3cccc4ccc1c2c34 [Example 12, 2-(((1-Pyrenylmethyl)amino)methyl)-2-propanol hydrochloride] | – | – | > 50 | > 50 | – | – | inhibition at 5 µg/mL (Eimeria tenella; in vitro): 76 to 100%; inhibition at 12.5 µg/mL [5, 6]: 26 to 50%
CC(CO)NCc1ccc2ccc3cccc4ccc1c2c34 (stereo not shown) [Example 7, 2-((1-Pyrenylmethyl)amino)propanol hydrochloride] | 600 | – | ≤ 5 | 50 | – | – | –
OCCCNCc1ccc2ccc3cccc4ccc1c2c34 [Example 3, 3-((1-pyrenylmethyl)amino)propanol hydrochloride] | 450 | – | < 5 | 30 | 1 | 10 | inhibition at 6.25 µg/mL (Trichomonas vaginalis; 6.25 mg/L): 76 to 100%; MIC [5]: 0.78 µg/mL; inhibition at 0.78 µg/mL ([5]; 0.78 mg/L, read-out: Result (screen code, inhibition)): 76 to 100%
CC(O)CCNCc1ccc2ccc3cccc4ccc1c2c34 (stereo not shown) [Example 14, 4-((1-Pyrenylmethyl)amino)-2-butanol hydrochloride] | – | 130 | 10 | 50 | 50 | ≤ 5 | inhibition at 0.31 µg/mL (Eimeria tenella; 0.31 mg/L, in vitro): 26 to 50%
CCOCC(CO)(CO)NCc1ccc2ccc3cccc4ccc1c2c34 [Example 21C, 2-Ethoxymethyl-2-((1-pyrenylmethyl)amino)-1,3-propanediol hydrochloride 1/3H2 O] | 225 | – | – | – | – | – | –
CC(O)CNCc1ccc2ccc3cccc4ccc1c2c34 (stereo not shown) [Example 8, 1-((1-pyrenylmethyl)amino)-2-propanol hydrochloride] | 600 | – | 10 | 50 | – | – | –
COCC(C)(CO)NCc1ccc2ccc3cccc4ccc1c2c34 (stereo not shown) [Example 22D, 3-methoxy-2-methyl-2-((1-pyrenylmethyl)amino)-1-propanol methanesulfonate.1/3H2 O] | 135 | – | – | – | – | – | –
CCC(COC(C)=O)(COC(C)=O)NCc1ccc2ccc3cccc4ccc1c2c34 [Example 16, 2-Ethyl-2-((1-pyrenylmethyl)amino)-1,3-propanediol diacetate] | – | – | – | – | – | – | MTD (LD20 in the P388/0 test): 675 mg/kg; Score (Herpes simplex 1/vero): -4 (76-100% inhibition)
C[C@H](O)[C@@](C)(CO)NCc1ccc2ccc3cccc4ccc1c2c34 (relative stereo) [Example 20G, (+-)(2R*,3S*)-2-((1-Pyrenylmethyl)amino)-2-methyl-1,3-butanediol hydrochloride] | 125 | – | – | – | – | – | –
CC(CO)(CO)NCc1cc2cccc3ccc4cccc1c4c32 [Example 19, 2-methyl-2-((4-pyrenylmethyl)amino)-1,3-propanediol hydrochloride.1/4H2 O] | 45 | – | 10 | 30 | – | – | –
CC(C)(CO)NCc1ccc2ccc3cccc4ccc1c2c34 [Example 2A, 2-methyl-2-((1-pyrenylmethyl)amino)propanol hydrochloride] | – | – | ≤ 5 | 10 | 10 | 10 | LD20 (LD20 in the P388/0 test; hydrochloride): 170; inhibition at 40 µg/mL (Trichomonas vaginalis): 51 to 75%; inhibition at 5 µg/mL (Eimeria tenella; in vitro): 26 to 50%; MIC [5]: 3.1 µg/mL; inhibition at 3.1 µg/mL ([5]; 3.1 mg/L, read-out: Result (screen code, inhibition)): 76 to 100%
CC(=O)OCC(C)(COC(C)=O)NCc1ccc2ccc3cccc4ccc1c2c34 [Example 18, 2-methyl-2-(1-pyrenylmethyl)amino)-1,3-propanediol diacetate] | – | – | ≤ 10 | – | – | 30 | MTD (LD20 in the P388/0 test): 300 mg/kg; Score (Herpes simplex 1/vero): -3 (51-75% inhibition); Zone of Inhibition (Herpes simplex 1/vero): 30
O[C@@H]1CCC[C@H](O)[C@H]1NCc1ccc2ccc3cccc4ccc1c2c34 [Example 23B, (1α,2β,3α)-2-((1-Pyrenylmethyl)amino)-1,3-cyclohexanediolmethanesulfonate] | 180 | – | – | – | – | – | –
OCC(CO)(CO)NCc1ccc2ccc3cccc4ccc1c2c34 [Example 10, 2-Hydroxymethyl-2-((1-pyrenylmethyl)amino)-1,3-propanediol hydrochloride] | 215 | 160 | > 50 | > 50 | ≥ 50 | 5 | T/C × 100% Excluding 60 day Survivors (B16 cells; 150 mg/kg): +133%; inhibition at 0.37 µg/mL (Eimeria tenella): 76 to 100%
CCC(O)CNCc1ccc2ccc3cccc4ccc1c2c34 (stereo not shown) [Example 9, 1-((1-Pyrenylmethyl)amino)-2-butanol hydrochloride] | – | 350 | 10 | 10 | 50 | 10 | inhibition at 40 µg/mL (Trichomonas vaginalis): 26 to 50%
CC(C)C(CO)NCc1ccc2ccc3cccc4ccc1c2c34 (stereo not shown) [Example 4, 3-Methyl-2-((1-pyrenylmethyl)amino)butanol hydrochloride] | 450 | – | – | – | 10 | – | inhibition at 12.5 µg/mL [5, 6]: 26 to 50%
OCCNCc1ccc2ccc3cccc4ccc1c2c34 [Example 13, 2-((1-Pyrenylmethyl)amino)ethanol hydrochloride] | 220 | 160 | 5 | 10 | 50 | 5 | inhibition at 5 µg/mL (Eimeria tenella; in vitro): 26 to 50%
CCC(CO)(CO)NCc1ccc2ccc3cccc4ccc1c2c34 [Example 5A, 2-Ethyl-2-((1-pyrenylmethyl)amino)-1,3-propanediol hydrochloride] | 225 | 160 | 3 | 50 | 100 | 3 | inhibition at 40 µg/mL (Trichomonas vaginalis): 51 to 75%; T/C × 100% Excluding 60 day Survivors (B16 cells; 225 mg/kg): +159%
